How the values were obtained:
[1] = system: Mycobacterium tuberculosis; conditions: MTB-infected mice, intravenously injected; cited from earlier work
[2] = safety of S1P administration in mice; conditions: levels at which immunoregulatory activity can be measured
[3] = system: Mycobacterium tuberculosis; conditions: human macrophages; concentration close to physiologic ones; cited from earlier work
M. tuberculosis (Erdman) = assay: S1P as adjuvant for BCG vaccine in mice (immunogenicity and protection protocol); conditions: protocol to be followed
T cells = conditions: Jin et al., Blood 2003; cited from earlier work
Mtb-infected macrophages = conditions: cited from earlier work
Mtb specific T cells = assay: expansion of Mtb specific T cells after S1P administration to TB-infected macrophages; assay type: cell-based; conditions: S1P administered to TB-infected macrophages
[4] = system: macrophagic phospholipase D (PLD); conditions: cited from earlier work
[5] = system: macrophages and epithelial cells; assay: S1P given before infection: control of infection by macrophages and epithelial cells; assay type: cell-based; conditions: S1P administered before infection
dendritic cells = conditions: administered to dendritic cells in vitro; cited from earlier work

SMILES: CCCCCCCCCCCCC/C=C/C(O)C(N)COP(=O)(O)O [S1P, D-erythro-sphingosine 1-phosphate]
- mycobacterial growth [1]: significantly reduced
- pulmonary tissue damage [1]: significantly reduced
- safety [2]: appears safe
- antimicrobial activity / intracellular killing of TB [3]: induce antimicrobial activity in human macrophages leading to the intracellular killing of TB
- properties as a vaccine adjuvant (M. tuberculosis (Erdman)): novel, unexpected and advantageous properties as a vaccine adjuvant
- activation and proliferation of T cells (T cells): inhibit activation and proliferation of T cells
- phagolysosomal fusion (Mtb-infected macrophages): promote phagolysosomal fusion
- expansion of Mtb specific T cells (Mtb specific T cells): induces expansion of Mtb specific T cells
- PLD activity in macrophages [4]: increase PLD activity in macrophages
- capacity to control an infection [5]: increases the capacity of macrophages and epithelial cells to control an infection
- secretion of cytokine profiles (Th1/Th2 responses) (dendritic cells): alter the secretion of cytokine profiles

— patent US10092643B2, “Prophylactic and immunomodulatory compositions and uses” (Kherion Technology Limited, priority 2005, dated 2018)
